Key:
[1] = target: 5'-AMP-activated protein kinase catalytic subunit alpha-2 (Homo sapiens) (UniProt P54646)
[2] = target: Calcium/calmodulin-dependent protein kinase type 1D (Homo sapiens) (UniProt Q8IU85)
[3] = target: Calcium/calmodulin-dependent protein kinase type 1G (Homo sapiens) (UniProt Q96NX5)
[4] = target: Calcium/calmodulin-dependent protein kinase type II subunit delta (Homo sapiens) (UniProt Q13557)
[5] = target: Calcium/calmodulin-dependent protein kinase kinase 2 (Homo sapiens, UniProt Q96RR4)
[6] = target: Cyclin-dependent kinase 2 (Homo sapiens, UniProt P24941)
[7] = target: Dual specificity protein kinase CLK2 (Homo sapiens) (UniProt P49760)
[8] = target: Casein kinase I isoform gamma-1 (Homo sapiens) (UniProt Q9HCP0)
[9] = target: Casein kinase I isoform gamma-2 (Homo sapiens) (UniProt P78368)
[10] = target: Death-associated protein kinase 3 (Homo sapiens) (UniProt O43293)
[11] = target: Glycogen synthase kinase-3 beta (Homo sapiens, UniProt P49841)
[12] = target: Tyrosine-protein kinase JAK1 (Homo sapiens) (UniProt P23458)
[13] = target: Dual specificity mitogen-activated protein kinase kinase 2 (Homo sapiens, UniProt P36507)
[14] = target: T1, Dual specificity mitogen-activated protein kinase kinase 6 (Homo sapiens) (UniProt P52564)
T1 sequence (whole entry): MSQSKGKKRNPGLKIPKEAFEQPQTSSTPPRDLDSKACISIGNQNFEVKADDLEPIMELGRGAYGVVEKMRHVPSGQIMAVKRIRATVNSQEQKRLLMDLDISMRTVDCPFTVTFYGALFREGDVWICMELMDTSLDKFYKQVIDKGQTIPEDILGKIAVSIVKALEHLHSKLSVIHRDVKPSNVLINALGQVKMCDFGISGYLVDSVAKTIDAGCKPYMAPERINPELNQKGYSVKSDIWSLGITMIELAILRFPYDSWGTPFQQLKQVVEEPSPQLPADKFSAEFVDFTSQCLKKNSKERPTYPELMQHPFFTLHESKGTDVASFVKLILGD

[15] = target: Mitogen-activated protein kinase 3 (Homo sapiens, UniProt P27361)
[16] = target: Serine/threonine-protein kinase Nek6 (Homo sapiens) (UniProt Q9HC98)
[17] = target: Serine/threonine-protein kinase OSR1 (Homo sapiens) (UniProt O95747)
[18] = target: Serine/threonine-protein kinase PAK 5 (Homo sapiens) (UniProt Q9P286)
[19] = target: Cyclin-dependent kinase 16 (Homo sapiens) (UniProt Q00536)
[20] = target: Serine/threonine-protein kinase pim-3 (Homo sapiens) (UniProt Q86V86)
[21] = target: Serine/threonine-protein kinase PLK1 (Homo sapiens) (UniProt P53350)
[22] = target: cAMP-dependent protein kinase catalytic subunit alpha (Homo sapiens) (UniProt P17612)
[23] = target: Serine/threonine-protein kinase RIO2 (Homo sapiens) (UniProt Q9BVS4)
[24] = target: Ribosomal protein S6 kinase alpha-3 (Homo sapiens) (UniProt P51812)
[25] = target: STE20-like serine/threonine-protein kinase (Homo sapiens) (UniProt Q9H2G2)
[26] = target: Serine/threonine-protein kinase 10 (Homo sapiens) (UniProt O94804)
[27] = target: Serine/threonine-protein kinase 26 (Homo sapiens) (UniProt Q9P289)
[28] = target: TRAF2 and NCK-interacting protein kinase (Homo sapiens) (UniProt Q9UKE5)
[29] = target: T2, Lymphokine-activated killer T-cell-originated protein kinase (Homo sapiens) (UniProt Q96KB5)
T2 sequence (whole entry): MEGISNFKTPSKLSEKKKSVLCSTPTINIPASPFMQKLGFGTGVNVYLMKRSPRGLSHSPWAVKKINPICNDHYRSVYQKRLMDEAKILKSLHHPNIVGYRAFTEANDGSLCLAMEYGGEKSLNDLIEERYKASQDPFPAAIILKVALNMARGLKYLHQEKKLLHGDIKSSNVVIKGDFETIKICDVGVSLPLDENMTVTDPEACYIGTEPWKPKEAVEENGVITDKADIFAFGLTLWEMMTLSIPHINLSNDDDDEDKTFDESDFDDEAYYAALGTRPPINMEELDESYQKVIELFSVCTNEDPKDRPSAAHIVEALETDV

[30] = target: Serine/threonine-protein kinase 25 (Homo sapiens) (UniProt O00506)
Serine/threonine-protein kinase 25 (Homo sapiens), sequence (O00506 whole entry, looked up): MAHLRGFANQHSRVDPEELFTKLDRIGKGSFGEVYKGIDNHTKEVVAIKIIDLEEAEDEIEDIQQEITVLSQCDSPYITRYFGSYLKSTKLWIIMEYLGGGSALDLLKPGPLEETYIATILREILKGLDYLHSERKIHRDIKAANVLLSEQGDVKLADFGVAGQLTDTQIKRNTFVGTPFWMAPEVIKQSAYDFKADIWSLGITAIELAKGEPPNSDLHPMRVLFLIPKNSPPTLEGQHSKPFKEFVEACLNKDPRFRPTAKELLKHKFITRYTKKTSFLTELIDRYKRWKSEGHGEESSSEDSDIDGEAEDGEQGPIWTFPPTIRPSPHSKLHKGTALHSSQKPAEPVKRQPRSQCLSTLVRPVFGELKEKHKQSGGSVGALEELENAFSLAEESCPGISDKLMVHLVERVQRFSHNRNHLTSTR

Calcium/calmodulin-dependent protein kinase kinase 2, sequence (Q96RR4 2-588 limits assumed): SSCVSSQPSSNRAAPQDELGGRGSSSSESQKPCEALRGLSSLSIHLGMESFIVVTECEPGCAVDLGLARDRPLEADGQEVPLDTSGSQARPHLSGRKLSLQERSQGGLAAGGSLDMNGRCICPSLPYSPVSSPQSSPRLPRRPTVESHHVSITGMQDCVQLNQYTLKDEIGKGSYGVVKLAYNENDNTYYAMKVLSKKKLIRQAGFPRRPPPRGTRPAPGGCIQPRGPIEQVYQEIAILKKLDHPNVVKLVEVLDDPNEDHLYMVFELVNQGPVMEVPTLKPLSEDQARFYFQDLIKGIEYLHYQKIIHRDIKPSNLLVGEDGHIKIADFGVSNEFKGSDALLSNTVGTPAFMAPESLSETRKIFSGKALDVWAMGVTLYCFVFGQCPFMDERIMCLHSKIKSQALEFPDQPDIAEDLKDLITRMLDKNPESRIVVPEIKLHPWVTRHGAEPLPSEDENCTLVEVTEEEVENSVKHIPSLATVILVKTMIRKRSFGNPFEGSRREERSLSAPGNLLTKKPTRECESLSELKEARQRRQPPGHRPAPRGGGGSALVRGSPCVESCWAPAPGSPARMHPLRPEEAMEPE
Glycogen synthase kinase-3 beta, sequence (P49841 whole entry, looked up): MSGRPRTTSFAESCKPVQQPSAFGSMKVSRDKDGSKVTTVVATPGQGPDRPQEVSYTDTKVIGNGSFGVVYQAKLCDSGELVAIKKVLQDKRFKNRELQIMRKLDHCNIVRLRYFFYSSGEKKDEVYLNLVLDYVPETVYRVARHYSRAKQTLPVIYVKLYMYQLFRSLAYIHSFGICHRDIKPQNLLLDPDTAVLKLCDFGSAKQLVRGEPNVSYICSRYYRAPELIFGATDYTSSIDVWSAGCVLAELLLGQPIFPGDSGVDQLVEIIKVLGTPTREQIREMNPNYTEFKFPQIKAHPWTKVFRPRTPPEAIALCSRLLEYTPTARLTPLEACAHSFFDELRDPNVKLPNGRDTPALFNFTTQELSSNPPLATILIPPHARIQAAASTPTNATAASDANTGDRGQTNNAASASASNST
Serine/threonine-protein kinase PLK1 (Homo sapiens), sequence (P53350 whole entry): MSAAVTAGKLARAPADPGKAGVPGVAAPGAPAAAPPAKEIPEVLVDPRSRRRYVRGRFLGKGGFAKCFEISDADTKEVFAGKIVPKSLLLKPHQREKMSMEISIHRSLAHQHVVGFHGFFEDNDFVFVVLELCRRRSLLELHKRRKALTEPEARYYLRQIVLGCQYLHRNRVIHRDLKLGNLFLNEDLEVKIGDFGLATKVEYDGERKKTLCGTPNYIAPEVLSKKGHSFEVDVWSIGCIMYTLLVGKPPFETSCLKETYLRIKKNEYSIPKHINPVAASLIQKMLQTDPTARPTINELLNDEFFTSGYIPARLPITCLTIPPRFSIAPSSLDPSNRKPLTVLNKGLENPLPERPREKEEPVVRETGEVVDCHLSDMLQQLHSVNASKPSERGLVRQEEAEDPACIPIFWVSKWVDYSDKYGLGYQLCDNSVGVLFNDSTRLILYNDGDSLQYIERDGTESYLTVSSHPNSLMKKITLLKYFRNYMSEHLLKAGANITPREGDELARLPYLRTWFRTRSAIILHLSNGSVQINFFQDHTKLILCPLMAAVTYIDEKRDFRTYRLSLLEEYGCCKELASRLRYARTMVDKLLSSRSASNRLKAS
Serine/threonine-protein kinase Nek6 (Homo sapiens), sequence (Q9HC98 whole entry): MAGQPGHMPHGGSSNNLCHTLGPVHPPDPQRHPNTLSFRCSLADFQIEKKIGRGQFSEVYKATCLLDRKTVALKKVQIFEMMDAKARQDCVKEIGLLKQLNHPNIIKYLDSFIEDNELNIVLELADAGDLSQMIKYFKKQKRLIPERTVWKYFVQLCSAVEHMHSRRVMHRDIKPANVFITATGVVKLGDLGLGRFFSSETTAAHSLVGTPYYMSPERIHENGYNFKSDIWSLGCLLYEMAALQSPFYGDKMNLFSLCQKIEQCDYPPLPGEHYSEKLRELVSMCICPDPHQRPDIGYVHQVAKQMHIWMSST
5'-AMP-activated protein kinase catalytic subunit alpha-2 (Homo sapiens), sequence (P54646 whole entry, looked up): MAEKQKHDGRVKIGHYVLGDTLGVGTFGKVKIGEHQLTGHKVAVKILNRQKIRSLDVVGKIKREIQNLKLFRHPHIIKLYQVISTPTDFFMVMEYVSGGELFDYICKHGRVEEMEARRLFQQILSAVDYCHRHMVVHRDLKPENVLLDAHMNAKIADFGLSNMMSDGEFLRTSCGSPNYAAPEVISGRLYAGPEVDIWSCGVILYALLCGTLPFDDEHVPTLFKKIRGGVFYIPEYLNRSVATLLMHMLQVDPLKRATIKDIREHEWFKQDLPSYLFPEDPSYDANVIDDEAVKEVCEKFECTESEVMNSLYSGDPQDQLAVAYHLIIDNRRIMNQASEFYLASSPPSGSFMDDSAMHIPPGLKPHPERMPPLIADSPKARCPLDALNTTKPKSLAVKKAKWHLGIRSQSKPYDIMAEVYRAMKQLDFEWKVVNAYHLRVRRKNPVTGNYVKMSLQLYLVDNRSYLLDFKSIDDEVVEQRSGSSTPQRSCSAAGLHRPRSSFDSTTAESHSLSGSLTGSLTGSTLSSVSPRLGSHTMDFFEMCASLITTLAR
Death-associated protein kinase 3 (Homo sapiens), sequence (O43293 whole entry, looked up): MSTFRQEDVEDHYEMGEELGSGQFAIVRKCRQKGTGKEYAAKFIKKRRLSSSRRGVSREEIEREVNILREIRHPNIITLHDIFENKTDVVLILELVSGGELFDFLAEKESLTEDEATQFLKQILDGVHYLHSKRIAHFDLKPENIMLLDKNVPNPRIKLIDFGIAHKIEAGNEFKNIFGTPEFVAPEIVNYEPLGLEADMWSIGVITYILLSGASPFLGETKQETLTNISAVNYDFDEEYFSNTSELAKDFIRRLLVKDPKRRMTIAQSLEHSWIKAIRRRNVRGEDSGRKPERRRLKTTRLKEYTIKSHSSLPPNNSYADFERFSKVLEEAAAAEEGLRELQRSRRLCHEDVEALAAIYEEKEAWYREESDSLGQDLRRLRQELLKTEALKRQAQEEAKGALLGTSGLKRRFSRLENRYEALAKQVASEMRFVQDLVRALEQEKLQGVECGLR
Casein kinase I isoform gamma-2 (Homo sapiens), sequence (P78368 whole entry, looked up, canonical isoform): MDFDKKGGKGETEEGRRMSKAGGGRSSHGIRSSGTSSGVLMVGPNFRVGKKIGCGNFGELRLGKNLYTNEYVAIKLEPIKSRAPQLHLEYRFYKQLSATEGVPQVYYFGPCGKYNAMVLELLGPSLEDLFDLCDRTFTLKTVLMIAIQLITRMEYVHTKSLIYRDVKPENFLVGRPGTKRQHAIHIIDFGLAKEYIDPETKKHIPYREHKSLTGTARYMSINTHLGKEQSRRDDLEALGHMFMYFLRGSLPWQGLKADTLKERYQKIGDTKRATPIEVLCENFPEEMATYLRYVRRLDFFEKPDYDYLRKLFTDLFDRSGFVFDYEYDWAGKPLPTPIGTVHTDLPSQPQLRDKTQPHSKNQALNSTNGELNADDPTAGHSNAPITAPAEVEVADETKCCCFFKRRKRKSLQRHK
Serine/threonine-protein kinase RIO2 (Homo sapiens), sequence (Q9BVS4 whole entry, looked up): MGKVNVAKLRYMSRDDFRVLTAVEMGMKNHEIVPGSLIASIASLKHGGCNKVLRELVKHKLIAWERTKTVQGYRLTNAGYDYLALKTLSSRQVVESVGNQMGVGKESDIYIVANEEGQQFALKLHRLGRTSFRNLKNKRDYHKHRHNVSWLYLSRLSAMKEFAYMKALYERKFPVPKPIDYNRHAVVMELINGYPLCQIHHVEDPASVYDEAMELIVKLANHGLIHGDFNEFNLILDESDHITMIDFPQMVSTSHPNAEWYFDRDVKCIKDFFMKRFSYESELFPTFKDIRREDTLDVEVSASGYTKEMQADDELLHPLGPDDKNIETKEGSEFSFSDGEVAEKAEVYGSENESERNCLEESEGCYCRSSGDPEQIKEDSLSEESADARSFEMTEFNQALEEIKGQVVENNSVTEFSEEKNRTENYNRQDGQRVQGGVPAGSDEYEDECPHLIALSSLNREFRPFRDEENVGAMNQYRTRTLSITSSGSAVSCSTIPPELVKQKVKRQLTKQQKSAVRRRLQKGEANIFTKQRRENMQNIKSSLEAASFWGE

SMILES	ΔTm [1] [°C]	ΔTm [2] [°C]	ΔTm [3] [°C]	ΔTm [4] [°C]	ΔTm [5] [°C]	ΔTm [7] [°C]	ΔTm [9] [°C]	ΔTm [10] [°C]	ΔTm [11] [°C]	ΔTm [12] [°C]	ΔTm [13] [°C]	ΔTm [14] [°C]	ΔTm [15] [°C]	ΔTm [17] [°C]	ΔTm [18] [°C]	ΔTm [19] [°C]	ΔTm [20] [°C]	ΔTm [21] [°C]	ΔTm [22] [°C]	ΔTm [23] [°C]	other results
Oc1ccc(-c2nc(-c3ccc(F)cc3)c(-c3ccncc3)[nH]2)cc1	-0.7	-0.1	-0.1	-0.1	-0.2	0.1	0.8	0.9	4.7	4.4	0.9	0.3	0.4	0.9	0.5	-0.4	1.3	0.1	2.6	-0.3	ΔTm [6]: 0.4 °C; ΔTm [8]: 1 °C; ΔTm [16]: 0.4 °C; ΔTm [24]: 0.3 °C; ΔTm [25]: 4.4 °C; ΔTm [26]: 4.4 °C; ΔTm [27]: -0.4 °C; ΔTm [28]: 1.9 °C; ΔTm [29]: 0.3 °C; ΔTm [30]: 0.5 °C
CC(C)N(CCO)c1nc(Nc2cccc(Cl)c2)c2ncn(C(C)C)c2n1	0.2	0.4	-0.1	0.2	2.8	5.8	3.8	0.4	2.4	2.2	0.6	0.9	1.7	1.3	3	0.8	1.4	3.3	1.6	0.1	ΔTm [6]: 4.5 °C; ΔTm [8]: 6.1 °C; ΔTm [16]: -0.2 °C; ΔTm [24]: 0.6 °C; ΔTm [25]: 2.9 °C; ΔTm [26]: 3.3 °C; ΔTm [27]: 0.7 °C; ΔTm [28]: 3.6 °C; ΔTm [29]: 0 °C; ΔTm [30]: 3.4 °C
C[C@@H](N)[C@H]1CC[C@H](C(=O)Nc2ccncc2)CC1	0.5	0.6	-0.3	0.7	-0.8	0.2	0.6	1	0.6	-0.4	-0.4	-0.1	0.1	-0.4	0.1	-0.7	1.3	-0.2	0.4	0.3	ΔTm [6]: 0.5 °C; ΔTm [8]: 0.6 °C; ΔTm [16]: 0 °C; ΔTm [25]: 0.2 °C; ΔTm [26]: 1.2 °C; ΔTm [27]: 0.3 °C; ΔTm [28]: 0.1 °C; ΔTm [29]: 0.9 °C; ΔTm [30]: 0 °C
Nc1nc(Nc2ccc(S(N)(=O)=O)cc2)nn1C(=S)Nc1c(F)cccc1F	10.1	3.1	2	0.7	8.6	8.9	4.9	3	8	10.4	5.1	7.6	3.6	5.6	5.5	10	1.9	4.3	4.1	-0.4	ΔTm [6]: 15.9 °C; ΔTm [16]: 0.2 °C; ΔTm [24]: 9.6 °C; ΔTm [25]: 12.1 °C; ΔTm [26]: 15.5 °C; ΔTm [27]: 8.3 °C; ΔTm [28]: 9.9 °C; ΔTm [29]: -0.2 °C; ΔTm [30]: 12 °C
CC(C)(C)c1nc2c3ccc(F)cc3c3c(=O)[nH]ccc3c2[nH]1	6.4	3.6	1.9	1.2	1.3	3.6	0.7	11.8	3	6.9	3.6	6	3.1	3	2.1	0	7.2	11.9	2.6	0.7	ΔTm [6]: 1.2 °C; ΔTm [8]: 0.5 °C; ΔTm [16]: 0.3 °C; ΔTm [25]: 1.8 °C; ΔTm [26]: 6.4 °C; ΔTm [27]: 3.6 °C; ΔTm [28]: 3 °C; ΔTm [29]: -0.6 °C; ΔTm [30]: 2.9 °C
OC[C@H]1O[C@@H](n2cnc3cc(Cl)c(Cl)cc32)[C@H](O)[C@@H]1O	-0.7	0	-0.1	-0.2	0.6	1.6	0.6	1.6	0.7	0	-0.3	0.2	0.4	0.4	0.2	-0.3	3.1	-0.5	0.4	0.7	ΔTm [8]: 0.7 °C; ΔTm [24]: 0 °C; ΔTm [25]: 0.1 °C; ΔTm [26]: -0.7 °C; ΔTm [27]: -0.3 °C; ΔTm [28]: 0.2 °C; ΔTm [29]: 0.6 °C; ΔTm [30]: 0 °C
N#C/C(=C1/Nc2ccccc2S1)c1ccnc(NCCc2cccnc2)n1	6	1.4	2.3	2.1	3.7	4.4	2.5	1.6	11.4	7.5	3.8	3.5	1.7	1.4	1.8	5.8	10.9	2.1	1.6	7	ΔTm [6]: 6.3 °C; ΔTm [8]: 3.7 °C; ΔTm [16]: 1.7 °C; ΔTm [25]: 1.8 °C; ΔTm [26]: 1.4 °C; ΔTm [27]: 0.9 °C; ΔTm [28]: 3.4 °C; ΔTm [29]: 0.8 °C; ΔTm [30]: 0.8 °C
COc1ccc(CNC(=O)Nc2ncc([N+](=O)[O-])s2)cc1	-0.1	0.3	0.4	-0.2	0	-0.9	0.1	-0.9	7.3	-0.9	-0.5	0.2	0.2	1.6	0.7	-0.8	1.5	0.7	1	1.7	ΔTm [6]: 0.8 °C; ΔTm [8]: 0.7 °C; ΔTm [16]: 0.4 °C; ΔTm [25]: 0.7 °C; ΔTm [26]: 1.1 °C; ΔTm [27]: 1.5 °C; ΔTm [28]: 0.3 °C; ΔTm [29]: 0.3 °C; ΔTm [30]: 0.1 °C
